Experimental findings from US6855512B2, “Methods for identifying inhibitors of cytochrome P450RAI” (Allergan, Inc., priority 2000, dated 2005) are described below.

SMILES strings stand for the structures.

This assay deals with T1, P450RAI-1 (Homo sapiens, UniProt O43174).
T1 construct: expressed in transfected cells; host or cells: HeLa (stably transfected, hygromycin selection)
T1 sequence (O43174 1-497): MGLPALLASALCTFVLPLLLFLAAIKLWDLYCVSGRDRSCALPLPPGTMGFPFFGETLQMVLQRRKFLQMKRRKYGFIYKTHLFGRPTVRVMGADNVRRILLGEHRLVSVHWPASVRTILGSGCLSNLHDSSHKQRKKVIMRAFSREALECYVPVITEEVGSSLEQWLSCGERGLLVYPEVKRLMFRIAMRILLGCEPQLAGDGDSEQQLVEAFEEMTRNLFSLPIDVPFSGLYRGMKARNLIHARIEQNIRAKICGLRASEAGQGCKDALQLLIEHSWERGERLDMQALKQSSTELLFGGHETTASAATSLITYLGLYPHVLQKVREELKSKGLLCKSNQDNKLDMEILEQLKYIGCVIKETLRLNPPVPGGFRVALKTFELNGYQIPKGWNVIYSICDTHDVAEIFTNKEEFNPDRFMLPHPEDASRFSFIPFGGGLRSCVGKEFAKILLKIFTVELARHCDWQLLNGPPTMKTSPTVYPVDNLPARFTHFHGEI
Description: P450RAI-1 cell-based inhibitor assay (intact HeLa). The following applies: read-out: P450RAI INHIBITION DATA INTACT HELA IC50. As to the method: P450RAI-1 Cell-Based Inhibitor Assay:
P450RAI-1 stably transfected HeLa cells are maintained in […] tissue culture dishes in Modified Eagle's Medium (MEM) containing 10% Fetal Bovine Serum (FBS) and 100 μg/ml hygromycin. Exponentially growing cells are harvested by incubating in trypsin. Cells are then washed with 1× Phosphate Buffered Saline (PBS) and plated in a 48-well plate at 5×10^5 cells in 0.2 ml MEM medium containing 10% FBS and 0.05 μCi [^3H]-RA in the presence or absence of increasing concentrations of the test compounds. The compounds are diluted in 100% DMSO and then added in triplicate wells at either 10, 1 or 0.1 μM final concentration. As a positive control for RA metabolism inhibition, cells are also incubated with ketoconazole at 100, 10 and 1 μM. Cell are incubated for 3 hours at 37° C. […] The water soluble radioactivity is quantified using β-scintillation counter. IC50 values represent the concentration of inhibitor required to inhibit all-trans-RA metabolism by 50 percent and are derived manually from log-transformed data.

As a reminder, the IC50 is the concentration needed to halve the response being measured.

On to `Cc1cc(C(=O)Nc2ccc(C(=O)O)c(F)c2)cc2c1OC(C)(C)CC2(C)C` [Compound 220], for which the IC50 was determined as 1 µM.

For the compound `COc1cc(C(=O)Nc2ccc(C(=O)O)c(F)c2)cc2c1OC(C)(C)CC2(C)C` [Compound 226], the IC50 is > 10 µM.

For `CC1(C)CC(C)(C)c2cc(C(=O)Nc3ccc(C(=O)O)c(F)c3)cc(Cl)c2O1` [Compound 203], the IC50 came to 0.62 µM.

For `CC(C)(C)c1cc(C#Cc2ccc(C(=O)O)cc2)cc(C(C)(C)C)c1O` [Compound 235], the half-inhibitory concentration (IC50) turned out to be 7 µM.

On to `O=C(O)c1ccc2cc(-c3ccc(O)c(C45CC6CC(CC(C6)C4)C5)c3)ccc2c1` [Compound 233], for which the IC50 was determined as 1.3 µM.

For the compound `CC1(C)CCOc2c(Br)cc(C(=O)Nc3ccc(C(=O)O)c(F)c3)cc21` [Compound 225], the IC50 was > 10 µM.

For the compound `CC1(C)CCC(C)(C)c2cc(C(=O)Nc3ccc(C(=O)O)c(F)c3)ccc21` [Compound 237], the IC50 is 6.8 µM.

On to `COc1ccc(C#Cc2ccc(C(=O)O)cc2)cc1C12CC3CC(CC(C3)C1)C2` [Compound 214], for which the IC50 turned out to be 1.9 µM.

As for `CC1(C)CCCc2cc(C#Cc3ccc(C(=O)O)cc3)ccc21` [Compound 218], the IC50 was determined as 3.4 µM.

For `CC1(C)CC(C)(C)c2cc(C(=O)Oc3ccc(C(=O)O)cc3)ccc2O1` [Compound 231], the IC50 came to 4.1 µM.

On to `CC1=C(/C=C/C#Cc2ccc(C(=O)O)cc2)C(C)(C)CCC1(C)C` [Compound 212], for which the IC50 is 7 µM.

Regarding `CCC1(CC)CC(C)(C)c2cc(C(=O)Nc3ccc(C(=O)O)c(F)c3)cc(Br)c2O1` [Compound 206], the IC50 amounted to 1.8 µM.

As for `CC1(C)CCC(O)c2ccc(C#Cc3ccc(C(=O)O)cc3)cc21` (stereo not drawn) [Compound 232], the IC50 came out at 4.2 µM.

Take `CC(C)(C)c1cc(C#Cc2ccc(C(=O)O)cc2)cc(Cl)c1O` [Compound 209]: the IC50 is 1.7 µM.

On to `CC1(C)CCSc2ccc(C#Cc3ccc(CC(=O)O)cc3)cc21` [Compound 202], for which the IC50 was 0.6 µM.

On to `CC1=C(/C=C/C#Cc2ccc(C(=O)O)c(F)c2)C(C)(C)CCC1` [Compound 229], for which the IC50 came to 1.6 µM.

For the compound `CC1=C(/C=C/C#Cc2ccc(C(=O)O)cn2)C(C)(C)CCC1` [Compound 244], the IC50 amounted to 5.1 µM.

For `CC1(C)CC(C)(C)c2cc(C(=O)Nc3ccc(C(=O)O)c(F)n3)cc(Cl)c2O1` [Compound 221], the IC50 is > 10 µM.

In the case of `CC1(C)CCSc2ccc(C#Cc3ccc(C(=O)O)cn3)cc21` [Compound 238], the 50% inhibitory concentration (IC50) was determined as 7.2 µM.

Turning to `CCOc1c(Br)cc(C(=O)Nc2ccc(C(=O)O)c(F)c2)cc1C(C)(C)C` [Compound 223], the IC50 is > 10 µM.

Turning to `CC1=C(/C=C/C#Cc2ccc(C(=O)O)cc2)C(C)(C)CCS1` [Compound 219], the concentration for half-maximal inhibition (IC50) worked out at 3.2 µM.

With `CC1(C)CCC(C)(C)c2cc(C(=O)Oc3ccc(C(=O)O)cc3)ccc21` [Compound 243], the IC50 worked out at 7.4 µM.

As for `CC1(C)CCSc2ccc(C#Cc3ccc(C(=O)O)s3)cc21` [Compound 240], the IC50 came out at 3 µM.

`CCOc1c(I)cc(C(=O)Nc2ccc(C(=O)O)c(F)c2)cc1C(C)(C)C` [Compound 222]: the IC50 was > 10 µM.

Regarding `CC1=C(/C=C/C#Cc2ccc(C(=O)O)cc2)C(C)(C)CCC1` [Compound 217], the IC50 is 6.3 µM.

Regarding `Cc1cc(C(=O)Nc2ccc(C(=O)O)cc2)cc2c1OC(C)(C)CC2(C)C` [Compound 227], the IC50 worked out at 1.3 µM.

As for `CC1(C)CC(C)(C)c2cc(C(=O)Nc3ccc(C(=O)O)c(F)c3)cc(C3CC3)c2O1` [Compound 204], the IC50 was 0.7 µM.

Take `CC1(C)CCC(C)(C)c2cc(-c3ccc4cc(C(=O)O)ccc4c3)ccc21` [Compound 241]: the IC50 turned out to be 5.5 µM.

As to `CC1(C)CC(C)(C)c2cc(C(=O)Nc3ccc(C(=O)O)c(F)c3)ccc2O1` [Compound 228], the IC50 turned out to be 6 µM.

Turning to `CC1(C)CC(C)(C)c2cc(C(=O)Nc3ccc(C(=O)O)c(F)c3)cc(-c3ccccc3)c2O1` [Compound 224], the 50% inhibitory concentration (IC50) is 5.5 µM.

As to `CC1(C)CC(C)(C)c2cc(C(=O)Nc3ccc(C(=O)O)c(F)c3)cc(C(F)(F)F)c2O1` [Compound 205], the IC50 amounted to 1 µM.

For `COc1ccc(-c2ccc3cc(C(=O)O)ccc3c2)cc1C12CC3CC(CC(C3)C1)C2` [Compound 234], the IC50 came out at 4.7 µM.

Turning to `CC1(C)CCC(C)(C)c2cc(C#Cc3ccc(C(=O)O)cc3)ccc21` [Compound 216], the IC50 turned out to be 3.3 µM.

As for `CC1(C)CCC(C)(C)c2cc(C(=O)/C=C/c3ccc(C(=O)O)cc3)ccc21` [Compound 242], the IC50 worked out at 5.8 µM.

`CC1(C)CCSc2ccc(C#Cc3ccc(C(=O)O)cc3)cc21` [Compound 215]: the IC50 was 6.2 µM.

As for `CC1(C)CCC(C)(C)c2c1cc(O)c(C(=O)Nc1ccc(C(=O)O)cc1)c2F` [Compound 246], the IC50 was 3.1 µM.

As to `CC1=C(/C=C/C#Cc2ccc(C(=O)O)s2)C(C)(C)CCC1` [Compound 245], the IC50 turned out to be 3.3 µM.

On to `CC1(C)CCCc2ccc(C#Cc3ccc(C(=O)O)cc3)cc21` [Compound 208], for which the IC50 came to 1 µM.

Turning to `CC1(C)CCC(C)(C)c2cc(C#Cc3ccc(C(=O)O)c(F)c3)ccc21` [Compound 230], the IC50 is 5.1 µM.
